Numbers after ± are expanded uncertainties.
Tests used:
[1] = Liquid; for mass density: 298.15 K, 101.33 kPa, Vibrating tube method
[2] = refractive index (Na D-line) (dimensionless); conditions: 298.15 K; 101.33 kPa; Liquid; Standard Abbe refractometry

| mass density [1] [kg/m3] | vapor or sublimation pressure ([1]; 418.69 K) [kPa] | refractive index [2] | vapor or sublimation pressure ([1]; 369.75 K) [kPa] | vapor or sublimation pressure ([1]; 363.16 K) [kPa] | SMILES |
| --- | --- | --- | --- | --- | --- |
| 870.88 ± 0.23 | 101.3 ± 2 | 1.3992 ± 0.0005 |  |  | CCCCOC(=O)CC [butyl propanoate] |
| 799.62 ± 0.14 |  | 1.3836 ± 0.0005 | 101.3 ± 2 |  | CCCO [propan-1-ol] |
| 741.81 ± 0.16 |  | 1.3784 ± 0.0005 |  | 101.3 ± 2 | CCCOCCC [dipropyl ether] |

Reference: the NIST ThermoML archive (doi:10.1021/je060314n)
